# According to ChEMBL document CHEMBL1136555, “Antitumour benzothiazoles. Part 20: 3'-cyano and 3'-alkynyl-substituted 2-(4'-aminophenyl)benzothiazoles as new potent and selective analogues” (Bioorg Med Chem Lett, 2003):
# Tests used:
# MDA-MB-468 [1] = assay: (§1) Inhibitory activity of compound against breast cancer cell line MDA 468, following 72 hr treatment; format: functional; conditions: Homo sapiens, MDA-MB-468, 72 h
# MCF7 [2] = assay: (§2) Inhibitory activity of compound against breast cancer cell line MCF-7, following 72 hr treatment; format: functional; conditions: Homo sapiens, MCF7, 72 h
# SNB-19 = assay: Compound tested for growth inhibition of CNS cancer cell line SNB-19; format: functional; conditions: Homo sapiens
# OVCAR-4 = assay: Compound tested for growth inhibition of ovarian cancer cell line OVCAR-4; format: functional; conditions: Homo sapiens
# MDA-MB-231 = assay: Compound tested for growth inhibition of breast cancer cell line MDA-MB-231/ATCC; format: functional; conditions: Homo sapiens
# SW-620 = assay: Compound tested for growth inhibition of colon cancer cell line SW-620; format: functional; conditions: Homo sapiens
# SK-OV-3 = assay: Compound tested for growth inhibition of ovarian cancer cell line SK-OV-3; format: functional; conditions: Homo sapiens
# HCT-116 = assay: Compound tested for growth inhibition of colon cancer cell line HCT116; format: functional; conditions: Homo sapiens
# Hs-578T = assay: Compound tested for growth inhibition of breast cancer cell line HS 578T; format: functional; conditions: Homo sapiens
# HOP-62 = assay: Compound tested for growth inhibition of non-small cell lung cancer cell line HOP-62; format: functional; conditions: Homo sapiens
# NCI-H460 = assay: Compound tested for growth inhibition of non-small cell lung cancer cell line NCI-H460; format: functional; conditions: Homo sapiens
# NCI-H226 = assay: Compound tested for growth inhibition of non-small cell lung cancer cell line NCI-H226; format: functional; conditions: Homo sapiens
# DU-145 = assay: Compound tested for growth inhibition of prostate cancer cell line DU-145; format: functional; conditions: Homo sapiens
# 786-0 = assay: Compound tested for growth inhibition of renal cancer cell line 786-0; format: functional; conditions: Homo sapiens
# SF-268 = assay: Compound tested for growth inhibition of CNS cancer cell line SF-268; format: functional; conditions: Homo sapiens
# UO-31 = assay: Compound tested for growth inhibition of renal cancer cell line UO-31; format: functional; conditions: Homo sapiens
# A549 = assay: Compound tested for growth inhibition of non-small cell lung cancer cell line A549/ATCC; format: functional; conditions: Homo sapiens
# CAKI-1 = assay: Compound tested for growth inhibition of renal cancer cell line CAKI-1; format: functional; conditions: Homo sapiens
# MDA-MB-435 = assay: Compound tested for growth inhibition of breast cancer cell line MDA-MB-435; format: functional; conditions: Homo sapiens
# OVCAR-3 = assay: Compound tested for growth inhibition of ovarian cancer cell line OVCAR-3; format: functional; conditions: Homo sapiens
# LOX IMVI = assay: Compound tested for growth inhibition of melanoma cell line LOX IMVI; format: functional; conditions: Homo sapiens
# KM12 = assay: Compound tested for growth inhibition of colon cancer cell line KM12; format: functional; conditions: Homo sapiens
# NCI-H23 = assay: Compound tested for growth inhibition of non-small cell lung cancer cell line NCI-H23; format: functional; conditions: Homo sapiens
# K562 = assay: Compound tested for growth inhibition of leukemia cell line K-562; format: functional; conditions: Homo sapiens
# RXF 393 = assay: Compound tested for growth inhibition of renal cancer cell line RFX 393; format: functional; conditions: Homo sapiens
# SK-MEL-28 = assay: Compound tested for growth inhibition of melanoma cell line SK-MEL-28; format: functional; conditions: Homo sapiens
# MCF7 [3] = assay: Compound tested for growth inhibition of breast cancer cell line MCF-7; format: functional; conditions: Homo sapiens
# NCI/ADR-RES = assay: Compound tested for growth inhibition of breast cancer cell line NCI/ADR-RES; format: functional; conditions: Homo sapiens
# U-251 = assay: Compound tested for growth inhibition of CNS cancer cell line U251; format: functional; conditions: Homo sapiens
# UACC-62 = assay: Compound tested for growth inhibition of melanoma cell line UACC-62; format: functional; conditions: Homo sapiens
# SK-MEL-5 = assay: Compound tested for growth inhibition of melanoma cell line SK-MEL-5; format: functional; conditions: Homo sapiens
# HCC 2998 = assay: Compound tested for growth inhibition of colon cancer cell line HCC2998; format: functional; conditions: Homo sapiens
# TK-10 = assay: Compound tested for growth inhibition of renal cancer cell line TK-10; format: functional; conditions: Homo sapiens
# OVCAR-5 = assay: Compound tested for growth inhibition of ovarian cancer cell line OVCAR-5; format: functional; conditions: Homo sapiens
# Malme-3M = assay: Compound tested for growth inhibition of melanoma cell line MALME-3M; format: functional; conditions: Homo sapiens
# NCI-H322M = assay: Compound tested for growth inhibition of non-small cell lung cancer cell line NCI-H322M; format: functional; conditions: Homo sapiens
# SF-539 = assay: Compound tested for growth inhibition of CNS cancer cell line SF-539; format: functional; conditions: Homo sapiens
# HT-29 = assay: Compound tested for growth inhibition of colon cancer cell line HT-29; format: functional; conditions: Homo sapiens
# OVCAR-8 = assay: Compound tested for growth inhibition of ovarian cancer cell line OVCAR-8; format: functional; conditions: Homo sapiens
# PC-3 = assay: Compound tested for growth inhibition of prostate cancer cell line PC-3; format: functional; conditions: Homo sapiens
# UACC-257 = assay: Compound tested for growth inhibition of melanoma cell line UACC-257; format: functional; conditions: Homo sapiens
# MDA-N = assay: Compound tested for growth inhibition of breast cancer cell line MDA-N; format: functional; conditions: Homo sapiens
# SN12C = assay: Compound tested for growth inhibition of renal cancer cell line SN12C; format: functional; conditions: Homo sapiens
# RPMI-8226 = assay: Compound tested for growth inhibition of leukemia cell line RPMI-8226; format: functional; conditions: Homo sapiens
# M14 = assay: Compound tested for growth inhibition of melanoma cell line M14; format: functional; conditions: Homo sapiens
# T47D = assay: Compound tested for growth inhibition of breast cancer cell line T-47-D; format: functional; conditions: Homo sapiens
# SNB-75 = assay: Compound tested for growth inhibition of CNS cancer cell line SNB-75; format: functional; conditions: Homo sapiens
# HOP-92 = assay: Compound tested for growth inhibition of non-small cell lung cancer cell line HOP-92; format: functional; conditions: Homo sapiens
# SK-MEL-2 = assay: Compound tested for growth inhibition of melanoma cell line SK-MEL-2; format: functional; conditions: Homo sapiens
# HCT-15 = assay: Compound tested for growth inhibition of colon cancer cell line HCT-15; format: functional; conditions: Homo sapiens
# IGROV-1 = assay: Compound tested for growth inhibition of ovarian cancer cell line […]; format: functional; conditions: Homo sapiens
# A498 = assay: Compound tested for growth inhibition of renal cancer cell line A498; format: functional; conditions: Homo sapiens
# SF-295 = assay: Compound tested for growth inhibition of CNS cancer cell line SF-295; format: functional; conditions: Homo sapiens
# ACHN = assay: Compound tested for growth inhibition of renal cancer cell line ACHN; format: functional; conditions: Homo sapiens
# MOLT-4 = assay: Compound tested for growth inhibition of leukemia cell line MOLT-4; format: functional; conditions: Homo sapiens
# BT-549 = assay: Compound tested for growth inhibition of breast cancer cell line BT-549; format: functional; conditions: Homo sapiens
# NCI-H522 = assay: Compound tested for growth inhibition of non-small cell lung cancer cell line NCI-H522; format: functional; conditions: Homo sapiens
# MDA-MB-468 [4] = assay: as §1; format: functional, cell-based; conditions: Homo sapiens, MDA-MB-468, 72 h
# MCF7 [5] = assay: as §2; format: functional, cell-based; conditions: Homo sapiens, MCF7, 72 h
smiles,measurement,setting,value
C#Cc1cc(-c2nc3ccccc3s2)ccc1N,GI50,MDA-MB-468 [1],15 nM
same,GI50,MCF7 [2],49 nM
N#Cc1cc(-c2nc3cc(F)ccc3s2)ccc1N,GI50,SNB-19,9.12 µM
same,GI50,OVCAR-4,1380 nM
same,GI50,MDA-MB-231,7.41 µM
same,GI50,SW-620,> 100 µM
same,GI50,SK-OV-3,20.9 µM
same,GI50,HCT-116,15.8 µM
same,GI50,Hs-578T,8.51 µM
same,GI50,HOP-62,17 µM
same,GI50,NCI-H460,< 10 nM
same,GI50,NCI-H226,14.5 µM
same,GI50,DU-145,51.3 µM
same,GI50,786-0,31.6 µM
same,GI50,SF-268,12 µM
same,GI50,UO-31,49 µM
same,GI50,A549,214 nM
same,GI50,CAKI-1,> 100 µM
same,GI50,MDA-MB-435,> 100 µM
same,GI50,OVCAR-3,28.2 µM
same,GI50,LOX IMVI,> 100 µM
same,GI50,KM12,97.7 nM
same,GI50,NCI-H23,< 10 nM
same,GI50,K562,> 100 µM
same,GI50,RXF 393,2400 nM
same,GI50,SK-MEL-28,> 100 µM
same,GI50,MCF7 [3],< 10 nM
same,GI50,NCI/ADR-RES,> 100 µM
same,GI50,U-251,8.71 µM
same,GI50,MDA-MB-468 [1],7.8 nM
same,GI50,UACC-62,6.61 µM
same,GI50,SK-MEL-5,537 nM
same,GI50,HCC 2998,< 10 nM
same,GI50,TK-10,30.2 nM
same,GI50,OVCAR-5,37.1 nM
same,GI50,Malme-3M,> 100 µM
same,GI50,NCI-H322M,11.5 nM
same,GI50,SF-539,8.71 µM
same,GI50,HT-29,1620 nM
same,GI50,OVCAR-8,> 100 µM
same,GI50,PC-3,24 µM
same,GI50,UACC-257,> 100 µM
same,GI50,MDA-N,> 100 µM
same,GI50,SN12C,> 100 µM
same,GI50,RPMI-8226,> 100 µM
same,GI50,M14,25.7 µM
same,GI50,T47D,14.4 nM
same,GI50,SNB-75,832 nM
same,GI50,HOP-92,2630 nM
same,GI50,SK-MEL-2,13.5 µM
same,GI50,MCF7 [2],5.7 nM
same,GI50,HCT-15,389 nM
same,GI50,IGROV-1,< 10 nM
same,GI50,A498,8.51 µM
same,GI50,SF-295,16.6 µM
same,GI50,ACHN,759 nM
same,GI50,MOLT-4,> 100 µM
same,GI50,BT-549,3.8 µM
same,GI50,NCI-H522,28.2 µM
C[Si](C)(C)C#Cc1cc(-c2nc3cc(F)ccc3s2)ccc1N,GI50,MDA-MB-468 [1],210 nM
same,GI50,MCF7 [2],160 nM
N#Cc1cc(-c2nc3ccccc3s2)ccc1N,GI50,MDA-MB-468 [1],340 nM
same,GI50,MCF7 [2],580 nM
C[Si](C)(C)C#Cc1cc(-c2nc3ccccc3s2)ccc1N,GI50,MDA-MB-468 [1],560 nM
same,GI50,MCF7 [2],710 nM
N#Cc1cc(-c2nc3c(F)cccc3s2)ccc1N,GI50,MDA-MB-468 [1],80 nM
same,GI50,MCF7 [2],180 nM
N#Cc1cc(-c2nc3ccc(F)cc3s2)ccc1N,GI50,MDA-MB-468 [1],320 nM
same,GI50,MCF7 [2],820 nM
C#Cc1cc(-c2nc3c(F)cccc3s2)ccc1N,GI50,MDA-MB-468 [1],30 nM
same,GI50,MCF7 [2],110 nM
C#Cc1cc(-c2nc3cc(F)ccc3s2)ccc1N,GI50,MDA-MB-468 [1],6.8 nM
same,GI50,MCF7 [2],11 nM
C#Cc1cc(-c2nc3ccc(F)cc3s2)ccc1N,GI50,MDA-MB-468 [1],23 nM
same,GI50,MCF7 [2],110 nM
C[Si](C)(C)C#Cc1cc(-c2nc3ccc(F)cc3s2)ccc1N,GI50,MDA-MB-468 [1],400 nM
same,GI50,MCF7 [2],680 nM
C[Si](C)(C)C#Cc1cc(-c2nc3c(F)cccc3s2)ccc1N,GI50,MDA-MB-468 [1],230 nM
same,GI50,MCF7 [2],520 nM
Nc1ccc(-c2nc3ccccc3s2)cc1,IC50,MDA-MB-468 [4],< 1 nM
same,IC50,MCF7 [5],< 1 nM
